Reference: article PMC12527173, “Cytotoxic, anti-inflammatory, antioxidant, and anti-glyoxalase-I evaluation of chelating substances: In silico and in vitro study” (PLOS One, 2025)
Where two headings read alike, the source gives them in different places.

What was measured:
[1] = biological target: T1, human recombinant Glo-I enzyme (rhGlo-I) (Homo sapiens, UniProt Q04760); test: Glyoxalase-I (Glo-I) enzyme inhibition assay; type: biochemical; conditions: for activity against Glo-I (in words): in vitro, compounds classed as inactive
T1 construct: N-terminal Met and 6-His tag (N); purchased R&D Systems; host or cells: E. coli
T1 sequence (Q04760 2-184 limits assumed): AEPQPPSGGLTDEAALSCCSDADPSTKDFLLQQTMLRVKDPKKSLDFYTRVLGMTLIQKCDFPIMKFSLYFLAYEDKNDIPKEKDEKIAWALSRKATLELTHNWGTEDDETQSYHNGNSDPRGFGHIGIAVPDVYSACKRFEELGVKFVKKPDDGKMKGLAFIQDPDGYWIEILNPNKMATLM
Method: Solvents and chemicals were procured from Sigma-Aldrich Co. and Acros (ThermoFisher Scientific, New Jersey, USA). […] The enzyme was obtained from R&D Systems® Corporation in the USA. Synthetic compounds were tested for their inhibitory effects on the enzyme using a 10 mM DMSO stock concentration in triplicates. The manufacturer’s protocol from R & D Systems, Inc. in Minneapolis, MN, USA was followed for the in vitro experiments. The reconstituted Glo-I enzyme (0.5 mg/mL) was thawed after being stored at −70°C in sterile deionized water. […] The monitoring was done at a wavelength of 240 nm for 200 seconds at 37°C. The substrate mixture was freshly concocted with a concentration of 100 mM glutathione and 100 mM methylglyoxal (MG) in assay buffer containing 0.5 M sodium phosphate dibasic/monobasic. It was then left undisturbed at room temperature for 15 minutes […]. The selected compounds for investigation are subsequently produced in testing concentration ranges using a 0.1 M solution of sodium phosphate dibasic/monobasic with a pH range of 7–7.2. The blank contained an assay buffer with MG substrate. The test compounds were combined with human recombinant Glo-I (50 µM) in a 96-well plate to determine their kinetic behavior.

[2] = tested on: LPS-primed RAW 264.7 murine macrophages (nitrite / iNOS); test: Anti-inflammatory (nitrite) determination in LPS-primed macrophages; type: cell-based; conditions: Mus musculus, RAW264.7; LPS-primed RAW 264.7; nitrite by Griess; 24 h; n = 12; read-out: iNOS- IC50 value
Method: The RAW 264.7 mouse macrophage cell line (ATCC® TIB-71) was cultivated in high glucose DMEM with 10% foetal bovine serum (FBS), 100 U/mL penicillin, 100 μg/mL streptomycin, and 100 μg/mL L-glutamate. The cells were incubated at 37°C in a humidified environment with 95% air and 5% CO2. Confluent macrophages (2 x 10^5/well) were cultured with lipopolysaccharide (LPS; 20 μg/mL; Sigma, St. Luis, MO, USA) and indomethacin (25–200 μg/mL) as the positive control, along with various concentrations (5–200 μg/mL) of treatment compounds. The cells were incubated for 24 hours. 100 μL of Griess reagent were combined with 100 μL portions of cell culture medium and left to incubate at room temperature for 10 minutes. The absorbance at a wavelength of 550 nm was measured using a microplate reader, namely the Spectro Scan 80D UV-VIS spectrophotometer manufactured by Sedico Ltd. in Nicosia, Cyprus. The nitrite concentration was assessed by comparing it to a standard curve of sodium nitrite. A cytotoxicity protocol using SRB was conducted to assess the impact of the test substances under study on RAW 264.7 viability.

[3] = tested on: T47D breast cancer cell line; test: SRB cytotoxicity assay, T47D; type: cell-based; conditions: Homo sapiens, 72 h incubation, n = 12, read-out: Cytotoxicity (as of %Control) IC50 value T47D mammary malignancy
Method: (§1) The cancer cell lines were cultured in DMEM supplemented with 10% FBS (Bio Whittaker, Verviers, Belgium), HEPES Buffer (10 mM), gentamicin (50 µg/mL), L-glutamine (100 μg/mL), streptomycin ([…]), penicillin (100 µg/mL), and 4-(2-hydroxyethyl)-1-piperazineethanesulfonic acid (HEPES) Buffer (Sigma, St. Luis, MO, USA). The Sulforhodamine B used was obtained from Santa Cruz Biotechnology, Inc. in Texas, USA. […] Periodontal ligament fibroblasts (PDL) were utilized to assess specific cytotoxicity. Cancer cell lines that have survived offer several benefits. They provide a consistent and uninterrupted source of cells, so bypassing any ethical concerns related to the use of human tissue. Additionally, they are cost-effective. The cytotoxicity levels were assessed using the Sulforhodamine B (SRB) colorimetric assay, provided by Santa Cruz Biotechnology, Inc. in Texas, USA. The Spectro Scan 80D UV-VIS spectrophotometer, manufactured by Sedico Ltd. in Nicosia, Cyprus, was employed for this cytotoxicity screening. The cells were co-incubated with substances or a reference agent at various doses ranging from 5 to 200 μg/mL. […] The reduction in cell viability was analyzed by plotting Dose-response curves and expressing the data as a percentage of the control optical density. The IC50 values were obtained using regression analysis.

[4] = tested on: HeLa uterine cervix adenocarcinoma cell line; test: SRB cytotoxicity assay, HeLa; type: cell-based; conditions: Homo sapiens, 72 h incubation, n = 12, read-out: Cytotoxicity (as of %Control) IC50 value Hela cervix malignancy
Method: as §1

[5] = tested on: Breast cancer cell line MCF7; test: SRB cytotoxicity assay, MCF7; type: cell-based; conditions: Homo sapiens, 72 h incubation, n = 12, read-out: Cytotoxicity (as of %Control) IC50 value MCF7 mammary malignancy
Method: as §1

[6] = SRB cytotoxicity assay, normal PDL fibroblasts; type: cell-based; conditions: normal periodontal ligament (PDL) fibroblasts, 72 h incubation, 0.1–200 µM range, read-out: Cytotoxicity (as of %Control) IC50 value PDL fibroblasts
Method: as §1

[7] = tested on: HT-29 colorectal cancer cell line; test: SRB cytotoxicity assay, HT29; type: cell-based; conditions: Homo sapiens, 72 h incubation, n = 12, read-out: Cytotoxicity (as of %Control) IC50 value HT29
Method: as §1

[8] = tested on: PANC1 pancreatic cell line; test: SRB cytotoxicity assay, PANC1; type: cell-based; conditions: Homo sapiens, PANC-1, 72 h incubation, n = 12, read-out: Cytotoxicity (as of %Control) IC50 value PANC1
Method: as §1

[9] = tested on: CACO2 colorectal cancer cell line; test: SRB cytotoxicity assay, CACO2; type: cell-based; conditions: Homo sapiens, Caco-2, 72 h incubation, n = 12, read-out: Cytotoxicity (as of %Control) IC50 value CACO2
Method: as §1

[10] = tested on: SW480 colorectal cancer cell line; test: SRB cytotoxicity assay, SW480; type: cell-based; conditions: Homo sapiens, 72 h incubation, n = 12, read-out: Cytotoxicity (as of %Control) IC50 value SW480
Method: as §1

[11] = tested on: Human PC3 prostate cancer cell line; test: SRB cytotoxicity assay, PC3; type: cell-based; conditions: 72 h incubation, n = 12, read-out: Cytotoxicity (as of %Control) IC50 value PC3 prostate malignancy
Method: as §1

[12] = tested on: A549 lung cancer cell line; test: SRB cytotoxicity assay, A549; type: cell-based; conditions: Homo sapiens, 72 h incubation, n = 12, read-out: Cytotoxicity (as of %Control) IC50 value A549 lung malignancy
Method: as §1

[13] = tested on: SW620 colorectal cancer cell line; test: SRB cytotoxicity assay, SW620; type: cell-based; conditions: Homo sapiens, SW-620, 72 h incubation, n = 12, read-out: Cytotoxicity (as of %Control) IC50 value SW620
Method: as §1

[14] = tested on: A375 human skin cancer cell line; test: SRB cytotoxicity assay, A375; type: cell-based; conditions: A-375, 72 h incubation, n = 12, read-out: Cytotoxicity (as of %Control) IC50 value A375 skin melanoma
Method: as §1

[15] = tested on: HCT116 colorectal cancer cell line; test: SRB cytotoxicity assay, HCT116; type: cell-based; conditions: Homo sapiens, HCT-116, 72 h incubation, n = 12, read-out: Cytotoxicity (as of %Control) IC50 value HCT116
Method: as §1

[16] = read-out: Trial one (%inhibtion)
[17] = read-out: Trial three (%inhibtion)
[18] = read-out: Trial two (%inhibtion)

With `[O-][Cl+2]([O-])O` [Chloric acid] the “activity against Glo-I (in words)” value [1] was “inactive”.

With `CC(=NO)C(C)=NO` [Dimethylglyoxime] the “activity against Glo-I (in words)” value [1] was “inactive”.

For `COc1ccc2c(c1)c(CC(=O)O)c(C)n2C(=O)c1ccc(Cl)cc1` [Indomethacin], the IC50 [2] was 20 nM.

For `Oc1cc(O)c2c(c1)O[C@H](c1cc(O)c(O)c(O)c1)[C@@H](O)C2` [Gallocatechin], the “activity against Glo-I (in words)” value [1] was “inactive”.

With `Oc1ccc(CC2NCCc3cc(O)c(O)cc32)cc1` (stereo not shown) [Higenamine] the “activity against Glo-I (in words)” value [1] was “ineffective”.

`O=C(/C=C/c1ccc(O)c(O)c1)O[C@H]1[C@H](O)[C@@H](O)[C@H](OCCc2ccc(O)c(O)c2)O[C@@H]1CO` [Calceolarioside A] gave an inhibition at 3.125 µM [1, 16] of 15.4%, an inhibition at 3.125 µM [1, 17] of 6.7% and an inhibition at 3.125 µM [1, 18] of 7.9%. The inhibition at 6.25 µM [1, 16] was 14.4%, the inhibition at 6.25 µM [1, 17] was 9.01% and the inhibition at 6.25 µM [1, 18] was 9.06%. It also gave an inhibition at 12.5 µM [1, 16] of 25.3%, an inhibition at 12.5 µM [1, 17] of 20.9% and an inhibition at 12.5 µM [1, 18] of 12%. For the same molecule, the inhibition at 25 µM [1, 16] was 35.3%, the inhibition at 25 µM [1, 17] was 29.6% and the inhibition at 25 µM [1, 18] was 27.5%. It also gave an inhibition at 50 µM [1, 16] of 55.6%, an inhibition at 50 µM [1, 17] of 56% and an inhibition at 50 µM [1, 18] of 53.5%. For the same molecule, the “Maximum (descriptive statistics of enzyme inhibition)” value ([1]; highest mean inhibition over the tested concentrations, in % (unit assumed)) was 55.00, the IC50 ([1]; human recombinant Glo-I, triplicates, read-out: IC50 µM ± SD) was 44.3 ± 18.6 µM and the “Minimum (descriptive statistics of enzyme inhibition)” value ([1]; lowest mean inhibition over the tested concentrations, in % (unit assumed)) was 10.00. For the same molecule, the IC50 [3] was 45600 ± 3460 nM, the IC50 [4] was 208000 ± 34800 nM and the IC50 [5] was 899000 ± 179000 nM. For the same molecule, the IC50 at 72 h [6] was over 200000 nM.

In the case of `COc1ccc(C[C@@H](C)[C@@H](C)Cc2ccc(OC)c(OC)c2)cc1OC` [Terameprocol], the “activity against Glo-I (in words)” value [1] is reported as “inactive”.

With `Oc1cc(O)c2c(c1)O[C@H](c1ccc(O)c(O)c1)[C@@H](O)C2` [(+)Catechin] the “activity against Glo-I (in words)” value [1] was “inactive”.

For `NC(CO)C(=O)NNCc1ccc(O)c(O)c1O` (stereo not shown) [Benserazide, reference compound], the “activity against Glo-I (in words)” value [1] was “ineffective”.

With `CCN(CC)C(=O)/C(C#N)=C/c1cc(O)c(O)c([N+](=O)[O-])c1` [Entacapone, reference compound] the “activity against Glo-I (in words)” value [1] was “loss of activity”.

With `CC(=O)Nc1nnc(S(N)(=O)=O)s1` [acetazolamide, reference compound] the “activity against Glo-I (in words)” value [1] was “did not exhibit any action against Glo-I”.

For `CC(c1cc2ccccc2s1)N(O)C(N)=O` (stereo not shown) [Zileuton, reference compound], the “activity against Glo-I (in words)” value [1] was “do not demonstrate efficacy against Glo-I”.

With `O=C(/C=C/c1ccc(O)c(O)c1)O[C@@H]1[C@H](O)C[C@@](O)(C(=O)O)C[C@H]1OC(=O)/C=C/c1ccc(O)c(O)c1` [3,4-diaffeoylquinic acid] the “activity against Glo-I (in words)” value [1] was “inactive”.

With `O=C(/C=C/c1ccc(O)c(O)c1)O[C@@H]1C[C@@](OC(=O)/C=C/c2ccc(O)c(O)c2)(C(=O)O)C[C@@H](O)[C@@H]1O` [cynarine] the “activity against Glo-I (in words)” value [1] was “inactive”.

In the case of `O=C(CCCCCCC(=O)Nc1ccccc1)NO` [SAHA, reference compound], the “activity against Glo-I (in words)” value [1] is reported as “do not demonstrate efficacy against Glo-I”.

`COc1cccc2c1C(=O)c1c(O)c3c(c(O)c1C2=O)C[C@@](O)(C(=O)CO)C[C@@H]3O[C@H]1C[C@H](N)[C@H](O)[C@H](C)O1` [Doxorubicin, reference compound] showed an IC50 [7] of 6 nM, an IC50 [8] of 7170 ± 1070 nM and an IC50 [3] of 20 nM. For the same molecule, the IC50 [9] was 920 ± 30 nM, the IC50 [10] was 10 nM and the IC50 [4] was 5560 ± 80 nM. The IC50 [11] was 130 ± 10 nM, the IC50 [5] was 4810 ± 210 nM and the IC50 [12] was 280 nM. For the same molecule, the IC50 [13] was 650 ± 30 nM, the IC50 at 72 h [6] was over 200000 nM and the IC50 [14] was 280 ± 140 nM. For the same molecule, the IC50 [15] was 920 ± 30 nM.

With `Cc1c(O)c(=O)ccn1C` [3-Hydroxy-1,2-dimethyl-4(1h)-pyridone] the “activity against Glo-I (in words)” value [1] was “inactive”.

With `Oc1cc(O)c2c(c1)O[C@H](c1ccc(O)c(O)c1)[C@H](O)C2` [(-)Epicatechin] the “activity against Glo-I (in words)” value [1] was “inactive”.

In the case of `O=c1cccccc1O` [Tropolon], the “activity against Glo-I (in words)” value [1] is reported as “inactive”.
